According to article PMC9640980, “Pharmacological evaluation of enantiomerically separated positive allosteric modulators of cannabinoid 1 receptor, GAT591 and GAT593” (Frontiers in Pharmacology, 2022):

What was measured:
human CB1R (hCB1R) [1] = target: T1, human CB1R (hCB1R) (Homo sapiens, UniProt P21554); experiment: HitHunter cAMP inhibition assay in hCB1R CHO-K1 cells (10 µM forskolin); type: cell-based; details: value (95% CI)
T1 construct: host or cells: CHO-K1 (PathHunter βarrestin2 line)
Description: (§1) HitHunter (cAMP) and PathHunter (βarrestin2) Chinese hamster ovary (CHO)-K1 cells stably-expressing human CB1R (hCB1R) from DiscoveRx (Eurofins, Freemont, CA) were maintained at 37°C, 5% CO2 in DMEM/F-12 containing 10% fetal bovine serum (FBS) and 5 U × 10^4 U penicillin/streptomycin (ThermoFisher, Mississauga, ON). In addition, 800 μg/ml geneticin was used for CHO-K1 hCB1R HitHunter cAMP cells and 800 μg/ml geneticin and 300 μg/ml hygromycin B was used for CHO-K1 hCB1R PathHunter βarrestin2 cells.
cAMP inhibition was performed in the presence of 10 µM forskolin (FSK) using the DiscoveRx HitHunter assay in hCB1R CHO-K1 cells. Cells (16,000 cells/well in 96 well plates) were incubated overnight in Opti-MEM (Invitrogen) containing 1% FBS at 37°C and 5% CO2. Opti-MEM media was removed and replaced with cell assay buffer (DiscoveRx) and then cells were simultaneously treated with 10 µM FSK and experimental compounds (0.10 nM–10 µM) for 90 min cAMP antibody solution and working detection solutions were added according to the manufacturer’s protocol (DiscoveRx), and cells were incubated for 60 min at room temperature. cAMP solution A was added according to the manufacturer’s protocol (DiscoveRx) and cells were incubated for an additional 60 min at room temperature before chemiluminescence was measured on a Cytation5 plate reader (top read, gain 200, integration time 10 s).
(§2) Data related to EC50 and E max in Figures 3, 4 were obtained with nonlinear regression models (3-parameter model, GraphPad Prism 9.0, San Diego, CA). […] Significance was determined by one- or two-way ANOVA followed by Tukey’s or Bonferroni’s post-hoc test as indicated. p < 0.05 was considered significant and p values were only employed where ANOVA was used. Data related to Figure 5 was analyzed in GraphPad Prism 9.0 was used to analyze in vivo data and p < 0.05 was considered to be statistically significant. Data are expressed as mean ± SEM. Group sizes for all experiments are described in figure legends.

male C57BL/6 mice [2] = experiment: Triad assessment in mice: nociception (warm water tail-flick test); type: in vivo, mouse; details: for anti-nociceptive effects (tail flick), compound alone: 0.1, 1, 3, or 10 mg/kg i.p. compared to vehicle, male C57BL/6 mice, Figure 5C; for anti-nociceptive effect (tail flick), co-administered with THC: 3 and 10 mg/kg i.p. + sub-threshold 1 mg/kg THC, Figure 5F
Description: (§3) Male C57BL/6 mice (Charles River, Senneville, QC) between 4 and 7 months of age were used for these studies. Animals were group housed at the Laboratory Animal Services Unit (LASU) at the University of Saskatchewan (3-5 animals/cage) with a standard 12:12 light-dark cycle, ad libitum access to food and water, and environmental enrichment. Compounds administered intraperitoneally (i.p.) were prepared in vehicle [ethanol and cremophor in saline (1:1:8)]. Catalepsy was assessed in the bar holding assay 5 min after drug administration. Mice were placed so that their forepaws clasped a 0.7 cm ring clamp positioned 4.5 cm above the surface of the testing space ([Zagzoog et al., 2021]). The length of time the ring was held was recorded in seconds. The trial ended if the mouse turned its head or body or made 3 consecutive escape attempts to a maximum of 60 s. Body temperature was measured by rectal thermometer 15 min after drug administration. Anti-nociceptive effects were measured in the warm water (52 ± 2°C) tail-flick test 20 min after drug administration. Response in this case was defined by the removal of the tail from the warm water, with a maximal response time of 20 s. Catalepsy and tail flick data are presented as percent maximum possible effect (MPE). Compounds were administered at the doses indicated. Experimenters were blinded to treatment for all behavioral assessments and analyses. Animals were purchased, rather than bred, to reduce animal numbers. In all cases, experiments were performed with the approval of the University Animal Care Committee (UACC) at the University of Saskatchewan and are in keeping with the guidelines of the Canadian Council on Animal Care (CCAC) and the ARRIVE guidelines ([Kilkenny et al., 2010]).

human CB1R (hCB1R) [3] = target: T1, human CB1R (hCB1R); experiment: PathHunter βarrestin2 recruitment assay in hCB1R CHO-K1 cells; type: cell-based; details: for activity in the βarrestin2 recruitment assay as PAM, in words: as PAMs, 100 nM CP55,940; for βarrestin2 recruitment to hCB1R, in words: as agonist (and PAM where stated), Figures 3B,D; for EC50: compound alone, hCB1R CHO-K1, 90 min, value (95% CI), Figure 3B, read-out: EC50 (nM) 95% C.I., βarrestin2 recruitment as agonist
Description: as §1
βarrestin2 recruitment was determined using the hCB1R CHO-K1 cell PathHunter assay (DiscoveRx). Cells (16,000 cells/well in 96 well plates) were incubated overnight in Opti-MEM (Invitrogen) containing 1% FBS at 37°C and 5% CO2. Cells were then simultaneously treated with experimental compounds (0.10 nM–10 µM) for 90 min. Detection solution was added to cells according to the manufacturer’s protocol (DiscoveRx), and cells were incubated for 60 min at room temperature. Chemiluminescence was measured on a Cytation5 plate reader (top read, gain 200, integration time 10 s).
as §2

male C57BL/6 mice [4] = experiment: Triad assessment in mice: body temperature (rectal thermometer); type: in vivo, mouse; details: for hypothermia, compound alone: 0.1, 1, 3, or 10 mg/kg i.p. compared to vehicle, male C57BL/6 mice, Figure 5B; for hypothermic effect, co-administered with THC: 3 and 10 mg/kg i.p. + sub-threshold 1 mg/kg THC, Figure 5E
Description: as §3

hCB1R [5] = target: T2, hCB1R (Homo sapiens, UniProt P21554); experiment: [3H]CP55,940 radioligand binding to hCB1R CHO-K1 cell membranes; details: for Emax ± S.E.M., [3H]CP55,940 bound: 1 nM [3H]CP55,940, Figure 4A
T2 construct: expressed in transfected cells; host or cells: CHO-K1 cell membranes
Description: The assay began with the addition of transfected hCB1R CHO-K1 cell membranes (25 µg protein per well). The assays were left to equilibrate at room temperature for 2 h before vacuum filtration using a Millipore Sigma 12-well sampling manifold and filter paper that had been soaked in wash buffer. Each reaction well was washed 3 times with a 2 ml aliquot of Tris-binding buffer. The filters were removed then submerged in 5 ml of scintillation fluid (Ultima Gold F, PerkinElmer, Buckinghamshire, United Kingdom). Radioactivity was quantified by liquid scintillation spectrometry.
as §2

hCB1R [6] = target: T2, hCB1R; experiment: [35S]GTPγS G protein coupling assay, membranes of CHO-K1 cells overexpressing hCB1R; type: biochemical; details: absence of orthosteric agonist, Figure 4B; for EC50: value (95% CI), read-out: EC50 (nM) 95% C.I., [35S]GTPγS binding, compound alone
Description: This assay was conducted as described in previous reports ([Garai et al., 2020]). To summarize, the assay was completed in the presence of [35S]GTPγS (0.1 nM), GDP (30 µM), GTPγS (30 µM) using membranes derived from CHO-K1 cells (1 mg/ml) overexpressing hCB1R. Assay buffer consisted of 50 mM Tris, 10 mM MgCl2, 100 mM NaCl, 0.2 mM EDTA and 1 mM dithiothreitol (DTT) at pH 7.4. Membranes were incubated at 30°C for 90 min in a total volume of […]. Reactions were ended by the addition of ice-cold wash buffer (50 mM Tris and 1 mg/ml BSA, pH 7.4) followed by rapid filtration under vacuum through pre-soaked Whatman GF/B glass-fibre filters in a 24-well sampling manifold (Brandel Cell Harvester; Brandel Inc., Gaithersburg, MD, United States). Reaction wells were washed six times with a 1.2 ml aliquots of Tris-binding buffer. Filters were subsequently oven-dried for 60 min and placed in 3 ml of scintillation fluid (Ultima Gold XR, PerkinElmer). Bound radioactivity was determined by liquid scintillation counting. Basal [35S]GTPγS binding was determined in the presence of […] GDP without any compounds present. Non-specific binding was determined in the presence of […] GTPγS.
as §2

male C57BL/6 mice [7] = experiment: Triad assessment in mice: catalepsy (bar holding assay); type: in vivo, mouse; details: for catalepsy, compound alone: 0.1, 1, 3, or 10 mg/kg i.p. compared to vehicle, male C57BL/6 mice, Figure 5A; for cataleptic effect, co-administered with THC: 3 and 10 mg/kg i.p. + sub-threshold 1 mg/kg THC, Figure 5D
Description: as §3

male C57BL/6 mice [8] = tested on: male C57BL/6 mice; design: method as in Garai et al., 2020; details: 0.1, 1, 3, or 10 mg/kg (i.p.) compared to vehicle; ref Garai et al., 2020; cited from earlier work
male C57BL/6 mice [9] = tested on: male C57BL/6 mice; design: method as in Garai et al., 2020; details: 0.1, 1, 3, or 10 mg/kg (i.p.) compared to vehicle; ref Garai et al., 2020; cited from earlier work; remark: listed apart in the source
male C57BL/6 mice [10] = tested on: male C57BL/6 mice; design: method as in Garai et al., 2020; details: significant relative to vehicle at 3 and 10 mg/kg; ref Garai et al., 2020; cited from earlier work
[11] = design: method as in Garai et al., 2020; details: racemic mixtures; ref Garai et al., 2020; cited from earlier work
[12] = 100 nM CP55,940 + compound, Figure 3C, read-out: EC50 (nM) 95% C.I., cAMP inhibition as PAM
[13] = compound alone, hCB1R CHO-K1, 90 min, Figure 3A, read-out: EC50 (nM) 95% C.I., cAMP inhibition as agonist

T2 sequence (P21554 whole entry): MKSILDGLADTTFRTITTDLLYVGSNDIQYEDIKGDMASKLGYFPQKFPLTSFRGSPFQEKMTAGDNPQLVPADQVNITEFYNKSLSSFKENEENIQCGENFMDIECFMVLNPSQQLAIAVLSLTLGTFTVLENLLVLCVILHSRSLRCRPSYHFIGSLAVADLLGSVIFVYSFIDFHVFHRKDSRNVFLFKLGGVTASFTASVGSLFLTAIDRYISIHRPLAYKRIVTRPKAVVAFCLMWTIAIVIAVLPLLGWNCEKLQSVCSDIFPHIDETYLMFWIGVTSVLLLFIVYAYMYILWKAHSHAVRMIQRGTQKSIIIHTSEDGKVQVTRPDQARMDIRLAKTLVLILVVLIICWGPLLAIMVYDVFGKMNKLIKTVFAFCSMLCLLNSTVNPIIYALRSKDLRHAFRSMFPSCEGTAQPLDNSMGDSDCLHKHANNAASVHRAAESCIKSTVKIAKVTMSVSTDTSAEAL
T1 sequence (P21554 whole entry): as above

| Structure (SMILES) | EC50 (human CB1R (hCB1R) [1]; [12]) [nM] | EC50 (human CB1R (hCB1R) [1]; [13]) [nM] | anti-nociceptive effects (tail flick), compound alone (male C57BL/6 mice [2]) | activity in the βarrestin2 recruitment assay as PAM, in words (human CB1R (hCB1R) [3]) | βarrestin2 recruitment to hCB1R, in words (human CB1R (hCB1R) [3]) | EC50 (human CB1R (hCB1R) [3]) [nM] | hypothermia, compound alone (male C57BL/6 mice [4]) | EC50 (hCB1R [5]) [nM] | Emax ± S.E.M., [3H]CP55,940 bound (hCB1R [5]) [% radioligand bound] | Emax ± S.E.M., [35S]GTPγS binding, compound alone (hCB1R [6]) | EC50 (hCB1R [6]) [nM] | catalepsy, compound alone (male C57BL/6 mice [7]) | hypothermia, racemate alone (male C57BL/6 mice [8]) | catalepsy, racemate alone (male C57BL/6 mice [9]) | anti-nociceptive effect in the tail flick assay, racemate alone (male C57BL/6 mice [10]) | anti-nociceptive effect (tail flick), co-administered with THC (male C57BL/6 mice [2]) | hypothermic effect, co-administered with THC (male C57BL/6 mice [4]) | cataleptic effect, co-administered with THC (male C57BL/6 mice [7]) | metabolic stability and blood brain barrier penetrance, in words [11] |
| --- | --- | --- | --- | --- | --- | --- | --- | --- | --- | --- | --- | --- | --- | --- | --- | --- | --- | --- | --- |
| O=[N+]([O-])CC(c1ccccc1F)c1c(-c2cccc(F)c2)[nH]c2c(F)cccc12 (centres unmarked) [GAT1666] | 270 | 1.3 | did not produce | no activity | weak ability | > 10000 | did not produce | 140 | 140 ± 6.1 | 29 ± 2.6 % stimulation above baseline | 120 | did not produce |  |  |  |  |  |  |  |
| O=[N+]([O-])CC(c1ccccc1F)c1c(-c2cccc(F)c2)[nH]c2cc(F)ccc12 (centres unmarked) [GAT591] |  |  |  |  |  |  |  |  |  |  |  |  | did not produce | did not produce | dose-dependent anti-nociceptive effect |  |  |  |  |
| O=[N+]([O-])C[C@@H](c1ccccc1F)c1c(-c2cccc(F)c2)[nH]c2c(F)cccc12 [GAT1667] | 1.8 | 1.7 | did not produce |  | recruited βarrestin2 as low-potency agonists and PAMs | > 10000 | did not produce | 28 | 230 ± 5.4 | 34 ± 2.3 % stimulation above baseline | 8 | did not produce |  |  |  | significant | significant | significant |  |
| O=[N+]([O-])CC(c1ccccc1F)c1c(-c2cccc(F)c2)[nH]c2c(F)cccc12 (centres unmarked) [GAT593] |  |  |  |  |  |  |  |  |  |  |  |  | did not produce | did not produce | dose-dependent anti-nociceptive effect |  |  |  | superior to GAT591 |
| O=[N+]([O-])CC(c1ccccc1F)c1c(-c2cccc(F)c2)[nH]c2cc(F)ccc12 (centres unmarked) [GAT1664] | 29 | 2.8 | did not produce | no activity | did not recruit βarrestin2 | > 10000 | did not produce | 110 | 140 ± 7.0 | 38 ± 3.1 % stimulation above baseline | 110 | did not produce |  |  |  |  |  |  |  |
| O=[N+]([O-])C[C@@H](c1ccccc1F)c1c(-c2cccc(F)c2)[nH]c2cc(F)ccc12 [GAT1665] | 8.6 | 1.1 | did not produce |  | recruited βarrestin2 as low-potency agonists and PAMs | > 10000 | did not produce | 140 | 190 ± 8.5 | 41 ± 4.2 % stimulation above baseline | 21 | did not produce |  |  |  | significant | significant | significant |  |
